Assay results from patent US20250108038A1 (priority 2023, published 2025).
Values joined by “and” are separate entries in the source; they are usually repeats but may differ in a detail not shown here. Equal values may be shown once. Read-outs that look alike come from different tables or passages of the source.

What was measured:
[1] = Stability in beagle dog plasma
Experimental: Pooled (N≥3) male SD rat, beagle dog and mixed gender human plasma with EDTA-K2 as anticoagulant were purchased from BioIVT (NY, USA) and stored in a −70° C. freezer before use.
Incubations were conducted in 96-well plate format. The time points defined for this study are 0, 5, 15, 30 and 60 minutes.
For positive controls, the rat plasma was spiked with enalapril, the dog plasma spiked with bisacodyl and the human plasma was spiked with propantheline. All spiked plasma sample plates were incubated in a water bath at 37° C. with shaking.
At end of each time point, samples were immediately quenched with three volume of cold quenching solution. All sample plates were mixed thoroughly by shaking for approximately 10 minutes and centrifuged at 3220×g for 15 minutes. Subsequently, 100 μL of supernatant was removed from each well, mixed with 100 μL water in a new 96-well plate and subjected to LC-MS/MS analysis.
Concentrations of test article, metabolite, and control compounds in the samples were analyzed by LC-MS/MS semi-quantitatively. […] The peak area ratios of analyte/internal standard were used to semi-quantitatively determine the concentrations.
The peak area ratios (PAR) of analyte/internal standard were used to semi-quantitatively determine the concentration of test article and control compounds, and calculate the percent remaining with the following equation:
The elimination rate (ke) was calculated from a log linear plot of % remaining versus time. The half-life was calculated using the following equation:

[2] = Plasma and brain concentrations after 3 mg/kg i.p. in male CD-1 mice; conditions: for fu* Cmax: fu by equilibrium dialysis after 6 h
Experimental: Following dosing, three animals were sacrificed per time-point for the collection of terminal plasma and brain. […] Pharmacokinetics (PK) parameters for plasma and whole brain were estimated from the mean plasma and brain concentration versus time profiles.
The animals will be acclimatized to their new environment for a minimum of 5 days prior to study start.
Any unused dosing solutions will be stored at approximately −80° C. until transferred on dry ice to the bioanalytical facility.
The animals will be dosed intra-peritoneally (i.p.) into the lower right quadrant of the abdomen using a 0.5 mL Tuberculin syringe with attached needle 27 G×[…].
Whole blood will be collected via cardiac puncture under isoflurane anesthesia from three mice at each time-point at the collection times outlined in Table 2. Up to 0.8 mL of blood will be collected into 0.8 mL mini-collect K2EDTA coated tubes. Blood tubes will be centrifuged at 3200×g for 5 min. at 4° C. and plasma transferred into 1.5 mL flip top tubes. One vial of plasma for each collection time point will stored at approximately […] until transferred on dry ice to the bioanalytical facility.
Following cardiac puncture, mice will be perfused with 12 mL of ice-cold PBS via the left ventricle. Brains will then be excised, blotted and placed into pre-weighed 5 mL self standing green top sample tubes. Tubes containing brains will be re-weighed and then snap frozen in liquid nitrogen. Brain samples will be stored frozen at approximately −80° C. until transferred on dry ice to the bioanalytical facility.

[3] = Plasma protein binding by equilibrium dialysis; assay type: in vitro ADME, mouse; conditions: for % Recovery / % Unbound: mouse plasma
Experimental: Samples of spiked plasma and blank buffer (Dulbecco's phosphate-buffered saline, DPBS) and spiked brain homogenate and blank DPBS added to opposing sides of a dialysis membrane were collected from triplicate equilibrium dialysis chambers prior to (t=0) and following 1, 2, 4 and 6 hours of incubation at 37° C. […] The LC-MS/MS method(s) for analytes (Compound I-19, Compound A and Compound B) was cross-qualified for the analysis of the DPBS samples.
A secondary stock solution of 200 μM (74.2 ug/mL) will be prepared in DMSO. This secondary stock solution will then be diluted 100-fold to 2 μM ([…]) with male CD-1 mouse plasma and brain homogenate (1:2 v/v brain:Dulbecco's phosphate buffered saline, pH 7-7.2) or buffer (DPBS).
To 2.97 mL aliquots of thawed mouse plasma or brain homogenate warmed to 37° C., 30 ul aliquots of the secondary stock solution of the test compound will be added for final concentrations of 2 μM (0.742 ug/mL). An appropriate volume of warmed buffer (DPBS) will also be spiked with the test compound at a concentration of 2 μM ([…]). Triplicate aliquots (50 μL) of each spiked plasma, brain homogenate and buffer solution will be collected prior to dialysis into labeled 1.5 mL polypropylene tubes and then stored at approximately −80° C. until bioanalysis.
Equilibrium dialysis will be performed in a 96-well Teflon dialysis unit (HTDialysis, Gales Ferry, CT). Each well of the unit consists of two chambers separated by a vertically aligned dialysis membrane (regenerated cellulose) with a molecular weight cut-off of 12-14 KDa. The equilibrium dialysis membranes will first be presoaked in deionized water for 30 min, then soaked in 20% ethanol for 20 min, followed by rinsing twice with deionized water.
The equilibrium dialysis apparatus will be assembled according to the manufacturer's directions. One chamber of each well will be immediately filled with 150 μL of blank buffer (to prevent membrane dehydration). Aliquots (150 μL) of spiked plasma, spiked brain homogenate and spiked buffer will then be added to the opposing chamber in each well. Three wells per time point per matrix will be used. The top of the plate will be sealed with an adhesive sealing film to prevent evaporation and maintain constant pH during incubation.
The dialysis apparatus will be incubated at 37° C. in an orbital shaker/incubator (Lab-Line Enviro Shaker) set at 75 rpm.
Following 1, 2, 4 and 6 hours of incubation, samples from each plasma, brain homogenate and buffer compartment will be collected and the sample volume will be documented.

CYP3A4 = CYP3A4 (Homo sapiens, UniProt P08684); conditions: for Inhibition at Highest Test Article Concentration: 3A4, at 50 μM; for IC50: pooled human liver microsomes, 30 min
Sequence of CYP3A4 (P08684 whole entry): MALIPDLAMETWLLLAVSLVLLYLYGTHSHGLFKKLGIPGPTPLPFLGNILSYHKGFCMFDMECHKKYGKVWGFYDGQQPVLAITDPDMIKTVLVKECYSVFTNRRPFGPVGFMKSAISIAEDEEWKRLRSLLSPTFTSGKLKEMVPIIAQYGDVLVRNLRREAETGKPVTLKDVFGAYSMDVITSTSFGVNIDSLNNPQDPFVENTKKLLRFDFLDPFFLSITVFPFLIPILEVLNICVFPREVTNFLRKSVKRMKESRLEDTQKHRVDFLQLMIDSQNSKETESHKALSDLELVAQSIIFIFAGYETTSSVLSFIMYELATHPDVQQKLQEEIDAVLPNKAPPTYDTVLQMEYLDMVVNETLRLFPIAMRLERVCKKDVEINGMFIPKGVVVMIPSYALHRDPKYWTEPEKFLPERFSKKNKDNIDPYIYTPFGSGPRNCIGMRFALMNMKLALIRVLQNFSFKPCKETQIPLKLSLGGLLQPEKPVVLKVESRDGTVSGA

[4] = 3 mg/kg i.p. Compound I-19, male CD-1 mice
[5] = after 3 mg/kg i.p. Compound I-19
[6] = after 3 mg/kg i.p. Compound I-19, below the lower levels of quantitation
[7] = brain, 3 mg/kg i.p. Compound I-19, male CD-1 mice
[8] = plasma, 3 mg/kg i.p. Compound I-19, male CD-1 mice
[9] = dialysis time 1 h, 2 μM, 37° C.
[10] = dialysis time 2 h, 2 μM, 37° C.
[11] = dialysis time 4 h, 2 μM, 37° C.
[12] = dialysis time 6 h, 2 μM, 37° C.

COCCOC1(c2ccc(Cl)cc2)c2ccccc2C2=NCCN21 (centres unmarked) [Compound I-4]
Compound A formed (Aa/Ai) ([1]; 0 min): 0.48
% Remaining ([1]; 2.0 μM, 0 min): 100%
Aa/Ai Mean (N = 2) ([1]; 2.0 μM, 0 min): 2.24
% Remaining ([1]; 2.0 μM, 5 min): 93.5%
Aa/Ai Mean (N = 2) ([1]; 2.0 μM, 5 min): 2.10
% Remaining ([1]; 2.0 μM, 15 min): 92.0%
Aa/Ai Mean (N = 2) ([1]; 2.0 μM, 15 min): 2.07
% Remaining ([1]; 2.0 μM, 30 min): 89.2%
Aa/Ai Mean (N = 2) ([1]; 2.0 μM, 30 min): 2.00
% Remaining ([1]; 2.0 μM, 60 min): 83.7%
Aa/Ai Mean (N = 2) ([1]; 2.0 μM, 60 min): 1.88
T1/2 ([1]; 2.0 μM, 60 min incubation): >187 min
Compound A formed (Aa/Ai) ([1]; 5 min): 0.46
Compound A formed (Aa/Ai) ([1]; 15 min): 0.46
Compound A formed (Aa/Ai) ([1]; 30 min): 0.42
Compound A formed (Aa/Ai) ([1]; 60 min): 0.39

Clc1ccc(C2(OCC3OCCO3)c3ccccc3C3=NCCN32)cc1 (centres unmarked) [Compound I-19]
Cmax in brain relative to plasma ([2]; 3 mg/kg i.p.): 1.8 fold
Maximum brain concentration (Cmax) of Compound I-19 ([2]; 3 mg/kg i.p.): 1182 nmol/kg
Tmax of Compound I-19 (plasma and brain) ([2]; 3 mg/kg i.p.): 5 min
apparent half-life in brain ([2]; 3 mg/kg i.p.): 25.6 min and 25.2 min
apparent half-life in plasma ([2]; 3 mg/kg i.p.): 25.4 min and 25.2 min
(fu* AUC0-inf)brain/(fu*AUC0-inf)plasma ratio (Kp, uu) [2, 4]: 2.12
Brain/plasma AUC0-inf ratio (Kp) [2, 4]: 2.38
brain to plasma partitioning coefficient (Kp) ([2]; 3 mg/kg i.p., AUC0-inf based): 2.38
brain to plasma unbound partition coefficient (Kp,uu) ([2]; 3 mg/kg i.p., corrected for unbound fractions): 2.12
Tmax of Compound A in brain [2, 5]: 45 min
Tmax of Compound A in plasma [2, 5]: 15 min
peak brain concentration of Compound A [2, 5]: 60.3 nmol/kg
peak plasma concentration of Compound A [2, 5]: 48.2 nmol/L
brain concentration of Compound B [2, 6]: < 3 nmol/kg
plasma concentration of Compound B [2, 6]: < 1 nM
Cmax ([2]; brain (expressed as nmol/kg = nmol/L per footnote), 3 mg/kg i.p. Compound I-19, male CD-1 mice): 1180 nM
AUC0-inf [2, 7]: 521 nmol·h/L
Apparent T1/2 [2, 7]: 25.6 min
Tmax [2, 7]: 5 min
fu* AUC0-inf [2, 7]: 17.2 nmol·h/L
fu* Cmax [2, 7]: 39.1 nmol/L
AUC0-inf [2, 8]: 218 nmol·h/L
Apparent T1/2 [2, 8]: 25.4 min
Cmax [2, 8]: 648 nM
Tmax [2, 8]: 5 min
fu* AUC0-inf [2, 8]: 8.13 nmol·h/L
fu* Cmax [2, 8]: 24.1 nmol/L
Cmax ([2]; read-out: Maximum plasma concentration (Cmax) of Compound I-19, 3 mg/kg i.p.): 648 nM
% unbound in plasma ([3]; 2 μM, 6 hours of dialysis, 37° C.): 3.72±0.564%
fraction unbound to plasma ([3]; 2 μM, equilibrium dialysis): 0.0372
% recovery, plasma ([3]; 6 hours of dialysis): 57.1±0.567%
% Recovery [3, 9]: 87.9 ± 3.05%
% Unbound [3, 9]: 1.43%
% Recovery [3, 10]: 80.1 ± 2.93%
% Unbound [3, 10]: 1.91 ± 0.158%
% Recovery [3, 11]: 67.6 ± 3.41%
% Unbound [3, 11]: 3.20 ± 0.700%
% Recovery [3, 12]: 57.1 ± 0.567%
% Unbound [3, 12]: 3.72 ± 0.564%
Inhibition at Highest Test Article Concentration (CYP3A4; Midazolam): 28.4 at 50 μM %
Inhibition at Highest Test Article Concentration (CYP3A4; Testosterone): 57.5 at 50 μM %
IC50 (CYP3A4; substrate midazolam): did not inhibit
IC50 (CYP3A4; substrate testosterone): did not inhibit
